Measured values taken from patent US7115658B2 (priority 2002, dated 2006).

What follows are compounds tested against T1, Recombinant HCV polymerase (Hepatitis C virus genotype 1b, UniProt P26663) (assay: HCV Polymerase Inhibition Assay). Details: primer/template-directed transcription, 30 minutes at 30° C.; category symbol.
T1 construct: 2.5 pmoles (0.15 μg) HCV polymerase protein
Format: biochemical
Method: The above-described compounds were tested for activity with HCV polymerase. Recombinant HCV polymerase was tested for its ability to perform primer/template-directed transcription in assays that contained 30 mM tris-HCl pH 7.2, 10 mM MgCl2, 20 mM NaCl, 1 mM Dithiothreitol (DTT), 0.05% Tween-20, 1% glycerol, 5 pmoles biotin-dG12 (primer), 0.5 pmoles poly(rC)300 (template), 1 μM GTP, 0.1–0.3 uCi α-^32P-GTP, and 2.5 pmoles (0.15 μg) HCV polymerase protein in a final volume of 75 μL. Reactions were initiated by addition of enzyme and incubated 30 minutes at 30° C. Reactions were stopped by addition of 33 mM EDTA, and polynucleotide products were collected by filtration through Diethylaminoethyl (DE) Filtermat papers (Wallac). Unincorporated triphosphate was removed by washing the filters with 5% dibasic sodium phosphate. The filters were counted in a Packard Tri-Lux Microbeta scintillation counter (Packard Bioscience, Meriden, Conn.). Compounds to be tested were added at various concentrations, e.g., 1 μm to 50 μm, from stocks in 10% DMSO-water (final DMSO is 1% in reaction).
IC50 values were estimated from the primary cpm data (collected in triplicate) using the formula: cpm (I)=cpm (no inhibitor)(1−([I]/([I]+IC50))). An IC50 value represents the concentration (in μM) of a compound that provides 50% inhibition of polymerase-directed transcription in the above assay. A percent inhibition value is expressed for a compound where it was impractical to calculate an IC50 value with available data. If the IC50 estimated by the above equation was less than 200 nM, it was recalculated using the following equation, which takes into account the enzyme concentration (30 nM) in the assay: cpm(I)=cpm(no inhibitor)(1−((((I+IC50+30e−9)−sqrt(((I+IC50+30e−9)^2)−4×30e−9×I)))/((2) (30e−9))). Curve fitting was performed using the program KaleidaGraph (Synergy Software, Reading, Pa.).

T1 sequence (P26663 2420-3010): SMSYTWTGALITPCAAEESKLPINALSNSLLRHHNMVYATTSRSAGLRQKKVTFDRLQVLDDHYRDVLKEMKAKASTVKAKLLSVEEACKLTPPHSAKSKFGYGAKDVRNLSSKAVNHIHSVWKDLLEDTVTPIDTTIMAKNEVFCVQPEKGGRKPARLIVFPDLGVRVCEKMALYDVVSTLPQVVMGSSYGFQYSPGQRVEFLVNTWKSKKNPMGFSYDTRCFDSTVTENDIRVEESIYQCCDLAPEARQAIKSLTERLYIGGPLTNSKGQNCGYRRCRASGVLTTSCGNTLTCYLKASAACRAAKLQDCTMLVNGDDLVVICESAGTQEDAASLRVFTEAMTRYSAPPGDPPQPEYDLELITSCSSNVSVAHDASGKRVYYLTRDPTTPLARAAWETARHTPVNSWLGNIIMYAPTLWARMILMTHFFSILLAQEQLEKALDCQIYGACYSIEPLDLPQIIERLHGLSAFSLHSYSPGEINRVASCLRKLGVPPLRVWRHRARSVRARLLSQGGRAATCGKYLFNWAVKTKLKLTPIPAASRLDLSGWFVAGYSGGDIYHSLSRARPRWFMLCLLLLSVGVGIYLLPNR

Row | Compound | IC50 [µM]
1 | COc1cc(CCC2(C3CCCC3)CC(O)=CC(=O)O2)ccc1OCc1ccccc1 (stereo not shown) [Example 20, 6-[2-(4-Benzyloxy-3-methoxy-phenyl)-ethyl]-6-cyclopentyl-4-hydroxy-5,6-dihydro-pyran-2-one] | 1 to 10
2 | COc1ccc(CCC2(C3CCCC3)CC3=C(CCCO3)C(=O)O2)c(OC)c1 (stereo not shown) [Example 103, 7-Cyclopentyl-7-[2-(2,4-dimethoxyphenyl)ethyl]-3,4,7,8-tetrahydro-2H,5H-pyrano[4,3-b]pyran-5-one] | > 50
3 | CCOc1cccc(CCC2(C3CCCC3)CC(=O)CC(=O)O2)c1 (stereo not shown) [Example 24, 6-Cyclopentyl-6-[2-(3-ethoxy-phenyl)-ethyl]-dihydro-pyran-2,4-dione] | 1 to 10
4 | O=C1C=C(O)CC(CCc2ccc(OCc3ccc(Cl)c(Cl)c3)cc2)(C2CCCC2)O1 (stereo not shown) [Example 51, 6-Cyclopentyl-6-(2-{4-[(3,4-dichlorobenzyl)oxy]phenyl}ethyl)-4-hydroxy-5,6-dihydro-2H-pyran-2-one] | 10 to 50
5 | CCOc1c(F)cc(CCC2(C3CCCC3)CC(=O)CC(=O)O2)cc1F (stereo not shown) [Example 42] | 1 to 10
6 | COc1ccc(CCC2(C3CCCC3)CC(=O)C(C(=O)Cc3ccccc3)C(=O)O2)cc1 (stereo not shown) [Example 171, 6-Cyclopentyl-6-[2-(4-methoxy-phenyl)-ethyl]-3-phenylacetyl-dihydro-pyran-2,4-dione] | 10 to 50
7 | Cc1cc(SC2=C(O)CC(CCc3ccc(O)cc3)(C3CCCC3)OC2=O)c(C(C)(C)C)cc1CO (stereo not shown) [Example 133, 3-(2-tert-butyl-4-hydroxymethyl-5-methyl-phenylsulfanyl)-6-cyclopentyl-4-hydroxy-6-[2-(4-hydroxy-phenyl)-ethyl]-5,6-dihydro-pyran-2-one] | < 1
8 | COc1ccc(CCC2(C3CCCC3)CC(O)=C(Sc3nc4nc[nH]c4c(=O)[nH]3)C(=O)O2)cc1 (stereo not shown) [Example 118, 2-((6-Cyclopentyl-4-hydroxy-6-[2-(4-methoxyphenyl)ethyl]-2-oxo-5,6-dihydro-2H-pyran-3-yl}thio)-1,7-dihydro-6H-purin-6-one] | < 1
9 | O=C(Cc1cccnc1)C1C(=O)CC(CCc2cccc(Cl)c2)(C2CCCC2)OC1=O (stereo not shown) [Example 174, 6-[2-(3-Chloro-phenyl)-ethyl]-6-cyclopentyl-3-(2-pyridin-3-yl-acetyl)-dihydro-pyran-2,4-dione] | 1 to 10
10 | 6-[2-(3-Chloro-4-isopropoxy-phenyl)-ethyl]-6-cyclopentyl-3-(5,7-dimethyl-[1,2,4]triazolo[1,5-a]pyrimidin-2-ylsulfanyl)-4-hydroxy-5,6-dihydro-pyran-2-one [Example 129] | < 1
11 | O=C1CC(=O)OC(CCc2ccc(O)cc2)(C2CCCC2)C1 (stereo not shown) [Example 1, 6-Cyclopentyl-6-[2-(4-hydroxyphenyl)ethyl]dihydropyran-2,4-dione] | 10 to 50
12 | CCn1nnnc1SC1=C(O)CC(CCc2cc(Cl)c(OC)cc2OC)(C2CCCC2)OC1=O (stereo not shown) [Example 106, 6-[2-(5-Chloro-2,4-dimethoxyphenyl)ethyl]-6-cyclopentyl-3-[(1-ethyl-1H-tetraazol-5-yl)thio]-4-hydroxy-5,6-dihydro-2H-pyran-2-one] | < 1
13 | O=C1CC(=O)OC(CCc2ccc(C(=O)N3CCC(O)CC3)cc2)(C2CCCC2)C1 (stereo not shown) [Example 67, 6-Cyclopentyl-6-(2-[4-(4-hydroxy-piperidine-1-carbonyl)-phenyl]-ethyl}-dihydro-pyran-2,4-dione] | > 50
14 | COC(=O)Cc1ccc(CCC2(C3CCCC3)CC(=O)CC(=O)O2)cc1 (stereo not shown) [Example 10, {4-[2-(2-Cyclopentyl-4,6-dioxo-tetrahydro-pyran-2-yl)-ethyl]-phenyl}-acetic acid methyl ester] | 10 to 50
15 | O=C1CC(=O)OC(CCc2ccc(C(=O)N3CCOCC3)cc2)(C2CCCC2)C1 (stereo not shown) [Example 68, 6-Cyclopentyl-6-{2-[4-(morpholine-4-carbonyl)-phenyl]-ethyl}-dihydro-pyran-2,4-dione] | > 50
16 | COC1=CC(=O)OC(CCc2cccc(C(C)C)c2)(C2CCCC2)C1 (stereo not shown) [Example 34, 6-Cyclopentyl-6-[2-(3-isopropyl)-ethyl]-4-methyoxy-5,6-dihydro-pyran-2-one] | 10 to 50
17 | CC(C)Oc1ccc(CCC2(C3CCCC3)CC(=O)CC(=O)O2)cc1 (stereo not shown) [Example 41, 6-Cyclopentyl-6-[2-(4-isopropoxy-phenyl)-ethyl]-dihydro-pyran-2,4-dione] | 1 to 10

Row | Compound | IC50 [µM]
18 | COc1ccc(CCC2(C3CCCC3)CC(=O)CC(=O)O2)c(C#N)c1 (stereo not shown) [Example 7, 2-[2-(2-Cyclopentyl-4,6-dioxo-tetrahydro-pyran-2-yl)-ethyl]-5-methoxy-benzonitrile] | 10 to 50
19 | CC(C)COc1ccc(CCC2(C3CCCC3)CC(=O)CC(=O)O2)cc1F (stereo not shown) [Example 70, 6-Cyclopentyl-6-[2-(3-fluoro-4-isobutoxy-phenyl)-ethyl]-dihydro-pyran-2,4-dione] | 1 to 10
20 | COc1ccc(CCC2(C3CCCC3)CC(O)=C(Sc3nc4nc(C)cc(C)n4n3)C(=O)O2)cc1 (stereo not shown) [Example 92, 6-[2-(4-methoxyphenyl)ethyl]-6-cyclopentyl-3-[(5,7-dimethyl[1,2,4]triazolo[1,5-a]pyrimidin-2-yl)thio]-4-hydroxy-5,6-dihydro-2H-pyran-2-one] | < 1
21 | COc1ccc(CCC2(C3CCCC3)CC(O)=C(Sc3nc(N)c4cn[nH]c4n3)C(=O)O2)cc1 (stereo not shown) [Example 120, 3-[(4-Amino-1H-pyrazolo[3,4-d]pyrimidin-6-yl)thio]-6-cyclopentyl-4-hydroxy-6-[2-(4-methoxyphenyl)ethyl]-5,6-dihydro-2H-pyran-2-one] | < 1
22 | Cc1cccc(CCC2(C3CCCC3)CC(=O)CC(=O)O2)c1 (stereo not shown) [Example 36, 6-Cyclopentyl-6-(2-m-tolyl-ethyl)-dihydro-pyran-2,4-dione] | 10 to 50
23 | CC1(c2ccc(CCC3(C4CCCC4)CC(=O)CC(=O)O3)cc2)CC(=O)CC(=O)O1 (stereo not shown) [Example 66] | < 1
24 | O=C1OC(CCc2ccc(OCc3ccccc3)cc2)(C2CCCC2)CC(O)=C1Sc1cccc2ccccc12 (stereo not shown) [Example 86, 6-[2-(4-Benzyloxyphenyl)ethyl]-6-cyclopentyl-4-hydroxy-3-(napthalen-1-ylsulfanyl)-5,6-dihydropyran-2-one] | 1 to 10
25 | Cn1cccc(CCC2(C3CCCC3)CC(=O)CC(=O)O2)c1=O (stereo not shown) [Example 37, 6-Cyclopentyl-6-[2-(1-methyl-2-oxo-1,2-dihydro-pyridin-3-yl)-ethyl]-dihydro-pyran-2,4-dione] | > 50
26 | O=C1CC(=O)OC(CCc2ccc(Cl)c(Cl)c2)(C2CCCC2)C1 (stereo not shown) [Example 53, 6-Cyclopentyl-6-[2-(3,4-dichloro-phenyl)-ethyl]-dihydro-pyran-2,4-dione] | 1 to 10
27 | O=C1CC(=O)OC(CCc2ccc(OCC3CC3)c(F)c2)(C2CCCC2)C1 (stereo not shown) [Example 57, 6-Cyclopentyl-6-[2-(4-cyclopropylmethoxy-3-fluoro-phenyl)-ethyl]-dihydro-pyran-2,4-dione] | 1 to 10
28 | COc1ccc(CCC2(C3CCCC3)CC(O)=C(Sc3nnc(C)s3)C(=O)O2)cc1Cl (stereo not shown) [Example 125, 6-[2-(3-Chloro-4-methoxy-phenyl)-ethyl]-6-cyclopentyl-4-hydroxy-3-(5-methyl-[1,3,4]thiadiazol-2-ylsulfanyl)-5,6-dihydro-pyran-2-one] | < 1
29 | COc1ccc(CCC2(C3CCCC3)CC(O)=C(Sc3ccccc3)C(=O)O2)cc1Cl (stereo not shown) [Example 102, 6-[2-(3-Chloro-4-methoxy-phenyl)-ethyl]-6-cyclopentyl-4-hydroxy-3-phenylsulfanyl-5,6-dihydro-pyran-2-one] | < 1
30 | O=C1CC(=O)OC(CCc2ccc3c(c2)OCCO3)(C2CCCC2)C1 (stereo not shown) [Example 32, 6-Cyclopentyl-6-[2-(2,3-dihydro-benzo[1,4]dioxin-6-yl)-ethyl]-dihydro-pyran-2,4-dione] | 1 to 10
31 | CN(C)S(=O)(=O)c1ccc(CCC2(C3CCCC3)CC(=O)CC(=O)O2)cc1 (stereo not shown) [Example 76, 4-[2-(2-Cyclopentyl-4,6-dioxo-tetrahydro-pyran-2-yl)-ethyl]-dimethyl-benzenesulfonamide] | 10 to 50
32 | COc1cccc(CCC2(C3CCCC3)CC(O)=CC(=O)O2)c1 (stereo not shown) [Example 16, 6-Cyclopentyl-4-hydroxy-6-[2-(3-methoxy-phenyl)-ethyl]-5,6-dihydropyran-2-one] | 10 to 50
33 | O=C1OC(CCc2ccc(O)cc2)(C2CCCC2)CC(O)=C1Sc1cccc2ccccc12 (stereo not shown) [Example 85, 6-Cyclopentyl-4-hydroxy-6-[2-(4-hydroxyphenyl)ethyl]-3-(naphthalen-1-ylsulfanyl)-5,6-dihydropyran-2-one] | 1 to 10
34 | 6-Cyclopentyl-6-[2-(4-methoxy-phenyl)-ethyl]-3-[2-(3-methyl-isoxazol-5-yl)-acetyl]-dihydro-pyran-2,4-dione [Example 165] | 10 to 50
